Tests used:
Assay type in all cases: cell-based
[1] = tested on: SH-SY5Y cells; assay: PI4,5P2 levels by FACS in Tet-on inducible α-Syn SH-SY5Y cells
Protocol: Analysis was performed as previously described with some modifications. Cells were suspended and washed in clear DMEM; followed by 20 minutes fixation in 2% (v/w) paraformaldehyde at 4° C.; and permeabilization in 0.2% saponin in 1% BSA (w/v) for 15 minutes at 4° C. Cells were then incubated with anti α-Syn antibody (MJFR1, 1:2,000) and anti PI4,5P2 antibody (1:200, see Table 2) for 90 minutes at 4° C. with gentle rolling; washed and probed with the respective secondary antibody for 30 minutes at room temperature. FACS analysis in SK-mel2 cells was performed 7-14 days following viral transduction. During this time effective α-Syn knockdown was confirmed using rt-PCR and Western blotting. HEK 293T cells were analyzed by FACS forty-eight hours from transfection. Analyses were performed using BD LSRFortessa Cell Analyzer, equipped with 5 lasers (355, 405, 488, 561 and 640 nm) and the FLOWJO, LLC software. Mock-GFP, Sj-1 or PIPKIγ expression were directly detected at 488 nm based on a GFP-tag. […] A total of 2,000-4,000 gated cells were counted in each experiment unless indicated differently.
To test the mechanism through which α-Syn increases cellular PI4,5P2 levels, the inventors tested the potential involvement of Nir2-expression. […] 72 hours post DNA transfection, PI4,5P2 levels were determined by FACS. […] PI4,5P2 levels were determined by FACS following 3 days of incubation with doxycycline. […]

[2] = tested on: SH-SY5Y cells; assay: 568-Tf endocytosis by ICC in Tet-on inducible α-Syn SH-SY5Y cells; settings: doxycycline 72 hours; cells not induced set at 100%
[3] = tested on: α-Syn; assay: α-Syn expression by qPCR in Tet-on inducible SH-SY5Y cells; settings: with versus without doxycycline for 72 hours
Protocol: FIGS. 4A-4J include micrographs and graphs showing that α-Syn effect to elongate axons and collaterals is mediated through PI4,5P2. (4A) PI4,5P2 levels determined by FACS, in HEK 293T cells, following 48 hours from cell transfection with α-Syn and/or Sj-1 phosphatase, as indicated. Mean±SD of two independent experiments, n>3,000 cells in each treatment; P<0.05, one-way ANOVA. (4B) PI4,5P2 levels determined by FACS in HEK 293T cells transfected with α-Syn and/or PIPKIγ as indicated. Mean±SD of two independent experiments, n>3,000 cells in each treatment; P<0.05, one-way ANOVA. […] GFP signal was captured by direct fluorescence. […] (4E) Total length of collaterals per axon (in μm); and (4F) PI4,5P2 levels within the axon and its collaterals (per axon area) quantified by Fiji program. […] Western blot showing mCherry Nir2 signal detected with anti Nir2 ab (Abcam). PI4,5P2 levels determined by FACS. […] PI4,5P2 levels determined by FACS. […] (4I) Quantitative PCR (qPCR) detection of α-Syn following its induced expression in SH-SYSY cells without and with the addition of doxycycline for 72 hours. α-Syn mRNA levels normalized to the levels of G6PD gene detected in the same sample. (4J) Quantitative detection of NIR2 expression by qPCR in these cells. […]

In the case of `C[C@H]1c2cccc(O)c2C(=O)C2=C(O)[C@]3(O)C(=O)C(C(N)=O)=C(O)[C@@H](N(C)C)[C@@H]3[C@@H](O)[C@@H]21` [doxycycline], the “PI4,5P2 signal” value ([1]; FACS after 3 days of doxycycline, shCntrl cells) was about 146%, the “PI4,5P2 levels” value ([1]; doxycycline 72 hours, cells not induced set at 100%) was 151% and the “internalization of 568-Tf” value [2] was 133%. The “α-Syn levels of expression” value [3] was about 25 folds.
